In US20230139944A1, “TARGETING ALPHA3BETA1 INTEGRIN FOR TREATMENT OF CANCER AND OTHER DISEASES” (Board of Regents, The University of Texas System, priority 2019, published 2023):

Tests used:
[1] = system: activation of FAK, AKT, and ERK in KPPC; Col1^pdxKO cancer cells; assay: Col1 homotrimer-induced pro-survival signaling examined by Western blotting; type: cell-based, mouse; settings: VS-4718 1 μM, 16 hours, col1 homotrimers 50 μg/mL
Experimental: FIGS. 1A-1D. Type I collagen homotrimers induce pro-survival signaling through α3β1 integrin. KPPC; Col1^pdxKO cancer cells were transfected with siRNAs of DDR1 (A,B), integrin β1 (C), or integrin α3 (D). Cells were then incubated with DMEM medium with 1% FBS for 6 hours before the treatment with col1 homotrimers or heterotrimers (50 μg/mL) for 16 hours. Cells were harvested, lysed, and examined for indicated proteins by Western blotting.
(§1) FIGS. 2A-2H. Type I collagen homotrimers induce persistent proliferation signals via integrins. (A,B) KPPC; Col1^pdxKO cancer cells were transfected with siRNAs of integrins β1 (A), α1, α2, or α3 (B). Cells were then incubated with DMEM medium with 1% FBS for 6 hours before the treatment with col1 homotrimers or heterotrimers (50 μg/mL) for 16 hours. Cells were harvested, lysed, and examined by Western blotting. (C) Expression levels of selected integrin subunits in KPPC; Col1^pdxKO cancer cells. (D) Expression levels of selected integrin subunits human PDAC cell lines (Panc1, BxPC3, MiaPaca2, PSN1, HPAC, CAPAN1) based on RNA-seq data from the Broad Institute Cancer Cell Line Encyclopedia (CCLE) database. RMA (Robust Multi-array Average algorithm) normalization was used and data are the log 2 gene expression signal. […] Percent area of ADM and PanIN lesions was quantified. * P<0.05. […]

[2] = system: KPPC mice (ADM and PanIN lesions); assay: FAK inhibitor (FAKi) treatment in vivo, H&E-stained pancreas sections; design: species or system mouse; settings: oral gavage 50 mg/kg twice per day for 7 days
Experimental: as §1, with “signal. (E) Expression profile of integrin α3 (Itga3) among various cell clusters from KPPC tumors, as shown in t-SNE plot using the single cell RNA sequencing analysis. (F) Representative images of integrin α3 IHC staining on KPPC tumor sections. Scale bar: 100 μm. (G) KPPC; Col1^pdxKO cancer cells growing in 6-well plates were cultured with regular medium (DMEM with 10% FBS) to reach 60% confluence.” for “signal.”

[3] = system: FAK and PYK2; assay: Col1 homotrimer-induced signaling with FAK inhibitor, Western blotting; type: cell-based, mouse; settings: VS-4718 1 μM, 16 hours, KPPC; Col1^pdxKO cancer cells, col1 homotrimers 50 μg/mL

Question: With `CNC(=O)c1ccccc1Nc1cc(Nc2ccc(N3CCOCC3)cc2OC)ncc1C(F)(F)F` [VS-4718] as the compound, how does the “col1 homotrimer induced activation of FAK, AKT, and ERK” value [1] read?
Answer: abrogated

Question: And the “early PanIN progression (percent area of ADM and PanIN lesions)” value [2]?
Answer: inhibited early PanIN progression

Question: What about the “inhibition of FAK and PYK2” value [3] of the same compound?
Answer: inhibited FAK and PYK2
